ChEMBL document CHEMBL1201862, “PubChem BioAssay data set” (2004)
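96-well plates; 48 h exposure; 5 concentrations. Endpoints by linear interpolation between flanking doses. Not reached: highest tested concentration assigned. GI50 marks 50% less growth.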 Active and inactive are the calls of the source. Rule as the data show it: active = GI50 up to about 1.1 µM and inactive = higher.

What was measured:
Assay in all cases: NCI anticancer screen, dose series, 48 h
[1] = system: SK-MEL-28
[2] = system: HOP-18
[3] = system: CCRF-CEM
[4] = system: HT-29
[5] = system: A549
[6] = system: NCI-H460
[7] = system: HL-60
[8] = system: SNB-19
[9] = system: OVCAR-8
[10] = system: NCI-H226
[11] = system: KM-20L2
[12] = system: SNB-78
[13] = system: DLD-1
[14] = system: LXFL 529
[15] = system: RXF 631
[16] = system: Malme-3M
[17] = system: SK-MEL-5
[18] = system: IGROV-1
[19] = system: XF498
[20] = system: SK-MEL-2
[21] = system: A498
[22] = system: CAKI-1
[23] = system: M14
[24] = system: UACC-257
[25] = system: DMS-114
[26] = system: OVCAR-3
[27] = system: SW-620
[28] = system: COLO 205
[29] = system: SF-295
[30] = system: HCT-116
[31] = system: OVCAR-5
[32] = system: HOP-92
[33] = system: EKVX
[34] = system: RXF 393
[35] = system: SF-539
[36] = system: SN12C
[37] = system: 786-0
[38] = system: U-251
[39] = system: KM12
[40] = system: MOLT-4
[41] = system: SF-268
[42] = system: ACHN
[43] = system: NCI-H23
[44] = system: HCC 2998
[45] = system: OVCAR-4
[46] = system: HOP-62
[47] = system: UO-31
[48] = system: SK-OV-3
[49] = system: TK-10
[50] = system: SNB-75
[51] = system: LOX IMVI
[52] = system: RPMI-8226
[53] = system: DMS-273
[54] = system: UACC-62
[55] = system: K562
[56] = system: HCT-15
[57] = system: NCI-H522
[58] = system: M19-MEL
[59] = system: SR

Measured: GI50

O=C1C=Cc2ncccc2C1=O
inactive: [1] 24.4 µM | [2] > 52 µM | [3] 7.05 µM | [4] 22.2 µM | [5] 30.8 µM | [6] 20 µM | [7] 5.22 µM | [8] > 78.3 µM | [9] 16.3 µM | [10] > 44.9 µM | [11] > 45.9 µM | [12] 31 µM | [13] 18.7 µM | [14] 16.5 µM | [15] 21.4 µM | [16] 29.9 µM | [17] 14.9 µM | [18] 32.2 µM | [19] 24.6 µM | [20] 18.5 µM | [21] > 54 µM | [22] 21.1 µM | [23] 18.1 µM | [24] 20 µM | [25] 16.5 µM | [26] 23.9 µM | [27] 15.4 µM | [28] 18 µM | [29] 17.6 µM | [30] 16.9 µM | [31] > 44.2 µM | [32] 21.1 µM | [33] 23.5 µM | [34] 20 µM | [35] 21.1 µM | [36] 21.2 µM | [37] 15.7 µM | [38] 24.4 µM | [39] 33.7 µM | [40] 2.45 µM | [41] 34.4 µM | [42] 20.8 µM | [43] 20.3 µM | [44] > 48.1 µM | [45] 5.77 µM | [46] > 54.8 µM | [47] 30.5 µM | [48] 37.9 µM | [49] > 44.9 µM | [50] 21.3 µM | [51] 13.5 µM | [52] 24.1 µM | [53] 17 µM | [54] 16.8 µM | [55] 7.71 µM | [57] 15.7 µM
18.1 µM: [56]

O=c1[nH]nc2ccccc2c1Cl
inactive: [1] > 10 µM | [2] 15.7 µM | [3] 6.14 µM | [4] 6.68 µM | [5] 29.3 µM | [6] 18.5 µM | [8] 16.1 µM | [9] 21.2 µM | [10] 24.6 µM | [11] 14.6 µM | [12] 13.3 µM | [13] 10.4 µM | [15] 12.9 µM | [16] 16.2 µM | [17] > 10 µM | [18] 12.6 µM | [19] 14.5 µM | [20] 17.3 µM | [21] 17.5 µM | [22] 3.18 µM | [23] 12.3 µM | [24] 10.2 µM | [25] 4.89 µM | [26] 2.65 µM | [27] 13.8 µM | [28] 11.4 µM | [29] 20.5 µM | [30] 16.3 µM | [31] 18.3 µM | [32] 3.08 µM | [33] 4.29 µM | [35] 15.6 µM | [36] 17.6 µM | [37] 14.6 µM | [38] 15.8 µM | [39] 9.44 µM | [40] 14 µM | [41] 17.8 µM | [42] 16.3 µM | [43] 15.1 µM | [44] 1.52 µM | [45] 11.2 µM | [58] 6.92 µM | [46] 21 µM | [47] 15 µM | [48] 17.7 µM | [49] 18 µM | [50] 10.7 µM | [51] 17.6 µM | [52] 3.13 µM | [53] 16.3 µM | [54] 12.8 µM | [55] 4.24 µM
6.41 µM: [56]

CNc1ccccc1-c1nc2ccccc2c(=O)o1
> 100 µM: [56]
inactive: [1] > 100 µM | [59] > 100 µM | [2] > 100 µM | [3] > 100 µM | [5] > 100 µM | [6] > 100 µM | [7] > 100 µM | [8] > 100 µM | [9] > 100 µM | [10] > 100 µM | [11] > 100 µM | [12] 55.3 µM | [13] > 100 µM | [14] > 100 µM | [15] > 100 µM | [16] > 100 µM | [17] > 100 µM | [18] 74.1 µM | [19] 31 µM | [20] > 100 µM | [22] > 100 µM | [23] > 100 µM | [24] > 100 µM | [25] > 100 µM | [27] > 100 µM | [28] > 100 µM | [29] 41.2 µM | [30] > 100 µM | [31] > 100 µM | [33] > 100 µM | [35] 35 µM | [36] > 100 µM | [38] > 100 µM | [39] > 100 µM | [40] > 100 µM | [41] 32 µM | [42] > 100 µM | [44] > 100 µM | [45] > 100 µM | [58] > 100 µM | [47] > 100 µM | [48] > 100 µM | [49] > 100 µM | [50] 27.4 µM | [51] > 100 µM | [52] > 100 µM | [53] > 100 µM | [55] > 100 µM
